Measurements from ChEMBL document CHEMBL2385073, “Synthesis and evaluation of cholecystokinin trimers: a multivalent approach to pancreatic cancer detection and treatment” (Bioorg Med Chem Lett, 2013).

Key:
Format in all cases: cell-based
[1] = molecular target: T1, Gastrin/cholecystokinin type B receptor (Homo sapiens, UniProt P32239); test: Displacement of Eu-DTPA-CCK8 from CCK2 receptor in HEK293 cells after 2 hrs by TRF assay
T1 sequence (P32239 whole entry): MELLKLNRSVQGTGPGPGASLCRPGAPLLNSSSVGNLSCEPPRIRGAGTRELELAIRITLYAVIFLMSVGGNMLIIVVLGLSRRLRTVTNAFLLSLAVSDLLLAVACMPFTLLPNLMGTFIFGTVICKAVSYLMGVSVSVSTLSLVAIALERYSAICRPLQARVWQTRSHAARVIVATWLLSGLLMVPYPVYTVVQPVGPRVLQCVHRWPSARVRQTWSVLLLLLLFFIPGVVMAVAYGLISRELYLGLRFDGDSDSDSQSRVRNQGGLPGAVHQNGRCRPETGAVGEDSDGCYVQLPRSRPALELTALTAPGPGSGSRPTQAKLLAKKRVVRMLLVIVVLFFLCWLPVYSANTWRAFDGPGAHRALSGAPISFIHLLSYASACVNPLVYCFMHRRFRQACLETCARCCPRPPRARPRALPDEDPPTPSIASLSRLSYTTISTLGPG

[2] = molecular target: T2, Gastrin/cholecystokinin type B receptor (Homo sapiens) (UniProt P32239); test: Displacement of Eu-DTPA-CCK8 from CCK2 receptor in HEK293 cells after 2 hrs by TRF assay relative to CCK4
T2 sequence (whole entry): T1 sequence (P32239 whole entry)

[3] = molecular target: Melanocortin receptor 4 (Homo sapiens, UniProt P32245); test: Binding affinity to MC4R in HEK293 cells
Chain of Melanocortin receptor 4 (P32245 whole entry): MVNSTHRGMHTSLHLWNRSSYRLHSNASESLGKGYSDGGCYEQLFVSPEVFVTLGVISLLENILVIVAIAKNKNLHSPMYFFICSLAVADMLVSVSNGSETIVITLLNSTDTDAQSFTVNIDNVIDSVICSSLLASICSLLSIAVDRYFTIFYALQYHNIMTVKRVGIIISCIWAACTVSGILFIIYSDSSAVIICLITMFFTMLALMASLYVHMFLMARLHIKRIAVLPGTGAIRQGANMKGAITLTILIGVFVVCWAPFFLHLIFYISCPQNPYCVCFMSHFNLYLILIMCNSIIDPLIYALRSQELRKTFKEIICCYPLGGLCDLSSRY

C#CCCC(=O)NCCCC[C@H](NC(C)=O)C(=O)N[C@@H](Cc1c[nH]c2ccccc12)C(=O)N(C)[C@@H](CCCC)C(=O)N[C@@H](CC(=O)O)C(=O)N[C@@H](Cc1ccccc1)C(=O)Nc1cn(CC(=O)NCCC(=O)NCCCC(CCCNC(=O)CCNC(=O)Cn2cc(NC(=O)[C@H](Cc3ccccc3)NC(=O)[C@H](CC(=O)O)NC(=O)[C@H](CCCC)N(C)C(=O)[C@H](Cc3c[nH]c4ccccc34)NC(=O)[C@H](CCCCNC(=O)CCC#C)NC(C)=O)nn2)(NC(=O)CNC(=O)CCNC(=O)Cn2cc(NC(=O)[C@H](Cc3ccccc3)NC(=O)[C@H](CC(=O)O)NC(=O)[C@H](CCCC)N(C)C(=O)[C@H](Cc3c[nH]c4ccccc34)NC(=O)[C@H](CCCCNC(=O)CCC#C)NC(C)=O)nn2)C(=O)NCCC(N)=O)nn1
IC50 [1]: 5.2 nM
fold change (FC) [2]: 3

C#CCCC(=O)NCCCC[C@H](NC(C)=O)C(=O)N[C@@H](CO)C(=O)N[C@@H](CCCC)C(=O)N[C@@H](CCC(=O)O)C(=O)N[C@@H](Cc1cnc[nH]1)C(=O)N[C@H](Cc1ccccc1)C(=O)N[C@@H](CCCNC(=N)N)C(=O)N[C@@H](Cc1c[nH]c2ccccc12)C(=O)Nc1cn(CC(=O)NCCCC(CCCNC(=O)Cn2cc(NC(=O)[C@H](Cc3c[nH]c4ccccc34)NC(=O)[C@H](CCCNC(=N)N)NC(=O)[C@@H](Cc3ccccc3)NC(=O)[C@H](Cc3cnc[nH]3)NC(=O)[C@H](CCC(=O)O)NC(=O)[C@H](CCCC)NC(=O)[C@H](CO)NC(=O)[C@H](CCCCNC(=O)CCC#C)NC(C)=O)nn2)(NC(=O)CNC(=O)Cn2cc(NC(=O)[C@H](Cc3c[nH]c4ccccc34)NC(=O)[C@H](CCCNC(=N)N)NC(=O)[C@@H](Cc3ccccc3)NC(=O)[C@H](Cc3cnc[nH]3)NC(=O)[C@H](CCC(=O)O)NC(=O)[C@H](CCCC)NC(=O)[C@H](CO)NC(=O)[C@H](CCCCNC(=O)CCC#C)NC(C)=O)nn2)C(=O)NCCC(N)=O)nn1 (stereo not given in full)
IC50 [3]: 12 nM

C#CCCC(=O)NCCCC[C@H](NC(C)=O)C(=O)N[C@@H](Cc1c[nH]c2ccccc12)C(=O)N(C)[C@@H](CCCC)C(=O)N[C@@H](CC(=O)O)C(=O)N[C@@H](Cc1ccccc1)C(=O)Nc1cn(CC(=O)NCCC(=O)NCCC(=O)NCCCC(CCCNC(=O)CCNC(=O)CCNC(=O)Cn2cc(NC(=O)[C@H](Cc3ccccc3)NC(=O)[C@H](CC(=O)O)NC(=O)[C@H](CCCC)N(C)C(=O)[C@H](Cc3c[nH]c4ccccc34)NC(=O)[C@H](CCCCNC(=O)CCC#C)NC(C)=O)nn2)(NC(=O)CNC(=O)CCNC(=O)CCNC(=O)Cn2cc(NC(=O)[C@H](Cc3ccccc3)NC(=O)[C@H](CC(=O)O)NC(=O)[C@H](CCCC)N(C)C(=O)[C@H](Cc3c[nH]c4ccccc34)NC(=O)[C@H](CCCCNC(=O)CCC#C)NC(C)=O)nn2)C(=O)NCCC(N)=O)nn1
IC50 [1]: 8.5 nM
fold change (FC) [2]: 2

C#CCCC(=O)NCCCC[C@H](NC(C)=O)C(=O)N[C@@H](Cc1c[nH]c2ccccc12)C(=O)N(C)[C@@H](CCCC)C(=O)N[C@@H](CC(=O)O)C(=O)N[C@@H](Cc1ccccc1)C(=O)Nc1cn(CC(=O)NCC(=O)N2CCC[C@H]2C(=O)NCC(=O)NCCCC(CCCNC(=O)CNC(=O)[C@@H]2CCCN2C(=O)CNC(=O)Cn2cc(NC(=O)[C@H](Cc3ccccc3)NC(=O)[C@H](CC(=O)O)NC(=O)[C@H](CCCC)N(C)C(=O)[C@H](Cc3c[nH]c4ccccc34)NC(=O)[C@H](CCCCNC(=O)CCC#C)NC(C)=O)nn2)(NC(=O)CNC(=O)CNC(=O)[C@@H]2CCCN2C(=O)CNC(=O)Cn2cc(NC(=O)[C@H](Cc3ccccc3)NC(=O)[C@H](CC(=O)O)NC(=O)[C@H](CCCC)N(C)C(=O)[C@H](Cc3c[nH]c4ccccc34)NC(=O)[C@H](CCCCNC(=O)CCC#C)NC(C)=O)nn2)C(=O)NCCC(N)=O)nn1
IC50 [1]: 6 nM
fold change (FC) [2]: 2.5

C#CCCC(=O)NCCCC[C@H](NC(C)=O)C(=O)N[C@@H](Cc1c[nH]c2ccccc12)C(=O)N(C)[C@@H](CCCC)C(=O)N[C@@H](CC(=O)O)C(=O)N[C@@H](Cc1ccccc1)C(=O)Nc1cn(CC(=O)NCCCC(CCCNC(=O)Cn2cc(NC(=O)[C@H](Cc3ccccc3)NC(=O)[C@H](CC(=O)O)NC(=O)[C@H](CCCC)N(C)C(=O)[C@H](Cc3c[nH]c4ccccc34)NC(=O)[C@H](CCCCNC(=O)CCC#C)NC(C)=O)nn2)(NC(=O)CNC(=O)Cn2cc(NC(=O)[C@H](Cc3ccccc3)NC(=O)[C@H](CC(=O)O)NC(=O)[C@H](CCCC)N(C)C(=O)[C@H](Cc3c[nH]c4ccccc34)NC(=O)[C@H](CCCCNC(=O)CCC#C)NC(C)=O)nn2)C(=O)NCCC(N)=O)nn1
IC50 [1]: 12 nM
fold change (FC) [2]: 1.5

C#CCCC(=O)NCCCC[C@H](NC(C)=O)C(=O)N[C@@H](Cc1c[nH]c2ccccc12)C(=O)N(C)[C@@H](CCCC)C(=O)N[C@@H](CC(=O)O)C(=O)N[C@@H](Cc1ccccc1)C(N)=O
IC50 [1]: 16 nM
